Laboratory results reported in patent US20210030005A1, “BENZOXABOROLE COMPOSITIONS HAVING A GROWTH ENHANCING EFFECT” (BORAGEN, INC., priority 2018, published 2021).

Columns and labels:
Assay type in all cases: in vivo
red table beet = experiment: Soil drench growth enhancing effect, red table beet; conditions: for Average Dry Matter Weight / Average Root Length / Average Shoot Height: 4 treatments every 14 days, 14 days after final treatment
Experimental: (§1) Boron-containing compounds/compositions were applied directly to the soil, and the growth of plants was measured. An exemplary embodiment of a benzoxaborole compound includes 5-chlorobenzo[c][1,2]oxaborol-1(3H)-ol, which may be referred to herein as BAG8.
(§2) Eight 2-gallon pots were filled with steamed soil for each of the five treatments listed below:
(§3) 3-4 seeds were planted into each pot at a depth of 1 inch and covered. All seedlings were subjected to 16 hours of daylight at ˜800 μmol/m^2/second (light intensity) provided by cool-white fluorescent lamps. Daytime temperatures were ˜25° C. and were dropped to ˜18° C. at night.
(§4) Solutions were prepared by first dissolving the appropriate amount of benzoxaborole in ethanol or acetone then adding to distilled water. 100 mL of treatment was applied to each pot in a circular motion to evenly coat the surface of the soil. These treatments were applied every 14 days for a total of 4 treatments, including the at-planting treatment. Each pot was monitored, and 50 mL of distilled water was added to each pot when soil was dry.
(§5) Germination and shoot height data were recorded every seven days. 14 days after the final treatment application, plants were carefully removed from each pot and final shoot length, root length, and dry matter weight were recorded.
(§6) This experiment was conducted on red table beet, broccoli, snow pea, turnips, and spring wheat.

turnips = experiment: Soil drench growth enhancing effect, turnip; conditions: for Average Dry Matter Weight / Average Root Length / Average Shoot Height: 4 treatments every 14 days, 14 days after final treatment
Experimental: as §1, §2, §3, §4, §5, §6

spring wheat = experiment: Soil drench growth enhancing effect, spring wheat; conditions: for Average Dry Matter Weight / Average Root Length / Average Shoot Height: 4 treatments every 14 days, 14 days after final treatment
Experimental: as §1, §2, §3, §4, §5, §6

diseased maize = experiment: Field trial, yield of diseased maize
Experimental: (§7) In this example, diseased maize having Southern Rust of Maize (Puccinia polysora) was treated with BAG8, Azoxystrobin, and Boscalid. Testing was performed to assess the fungicidal effect of the compounds on Southern Rust of Maize (Puccinia polysora) and to assess the growth enhancing effect of the compounds on the diseased maize.
(§8) Maize was planted into 6×30 ft plots and replicated four times in a randomized complete block design. Three treatments and an untreated control were tested for efficacy against Southern Rust of Maize (Puccinia polysora) and assessed for yield at the conclusion of the growing season. Foliar applications of the three treatments, BAG8 at 0.25 pounds of active ingredient per acre, azoxystrobin at 0.25 pounds of active ingredient per acre, and boscalid at 0.24 pounds of active ingredient per acre, were applied to the plots at growth stage V8. Best practices were used consistently across the test plots with regard to field conditions such as fertilization, insect control, weed control, and irrigation. Disease assessments were taken in each plot 28 days after the foliar fungicide application. At maturity, each plot was harvested using standard harvesting equipment. After shelling, the kernels were weighed at 11% moisture and yield calculations extrapolated to bushels per acre.
(§9) Analysis of variance (ANOVA) was used to examine disease severity data and means were separated using Fisher's least significant difference (LSD) method at α=0.05. […]

[1] = test system: Southern Rust of Maize (Puccinia polysora); experiment: Field trial, Southern Rust of Maize severity on maize
Experimental: as §7, §8, §9

[2] = treatment B, 0.12 lb/A soil drench
[3] = treatment C, 0.25 lb/A soil drench
[4] = treatment D, 0.35 lb/A soil drench
[5] = treatment E, 0.60 lb/A soil drench
[6] = all rates (0.12-0.60 lb/A), soil drench

OB1OCc2cc(Cl)ccc21 [BAG8, 5-chlorobenzo[c][1,2]oxaborol-1(3H)-ol]
growth effect compared with untreated control (red table beet; all application rates (0.12-0.60 lb/A), soil drench): longer shoots, longer roots, and greater dry matter weight than the untreated control | Average Dry Matter Weight (red table beet; [2]): 10.70 mg | Average Root Length (red table beet; [2]): 4.50 cm | Average Shoot Height (red table beet; [2]): 3.33 cm | Average Dry Matter Weight (red table beet; [3]): 11.10 mg | Average Root Length (red table beet; [3]): 5.98 cm | Average Shoot Height (red table beet; [3]): 4.24 cm | Average Dry Matter Weight (red table beet; [4]): 11.30 mg | Average Root Length (red table beet; [4]): 5.56 cm | Average Shoot Height (red table beet; [4]): 4.09 cm | Average Dry Matter Weight (red table beet; [5]): 13.00 mg | Average Root Length (red table beet; [5]): 5.15 cm | Average Shoot Height (red table beet; [5]): 5.01 cm | growth effect compared with untreated control (turnips; [6]): longer shoots, longer roots, and greater dry matter weight than the untreated control | Average Dry Matter Weight (turnips; [2]): 6.40 mg | Average Root Length (turnips; [2]): 3.67 cm | Average Shoot Height (turnips; [2]): 1.81 cm | Average Dry Matter Weight (turnips; [3]): 7.62 mg | Average Root Length (turnips; [3]): 4.96 cm | Average Shoot Height (turnips; [3]): 2.09 cm | Average Dry Matter Weight (turnips; [4]): 7.82 mg | Average Root Length (turnips; [4]): 4.02 cm | Average Shoot Height (turnips; [4]): 2.18 cm | Average Dry Matter Weight (turnips; [5]): 6.36 mg | Average Root Length (turnips; [5]): 3.15 cm | Average Shoot Height (turnips; [5]): 2.13 cm | growth effect compared with untreated control (spring wheat; [6]): longer shoots, longer roots, and greater dry matter weight than the untreated control | increase in final dry matter weight of wheat (spring wheat; applied at 0.12 and 0.25 pounds per acre, soil drench): ~250% | Average Dry Matter Weight (spring wheat; [2]): 1204.30 mg | Average Root Length (spring wheat; [2]): 21.30 cm | Average Shoot Height (spring wheat; [2]): 39.50 cm | Average Dry Matter Weight (spring wheat; [3]): 1123.60 mg | Average Root Length (spring wheat; [3]): 24.40 cm | Average Shoot Height (spring wheat; [3]): 39.70 cm | Average Dry Matter Weight (spring wheat; [4]): 640.20 mg | Average Root Length (spring wheat; [4]): 20.40 cm | Average Shoot Height (spring wheat; [4]): 37.50 cm | Average Dry Matter Weight (spring wheat; [5]): 649.70 mg | Average Root Length (spring wheat; [5]): 22.00 cm | Average Shoot Height (spring wheat; [5]): 39.90 cm | increased yield relative to untreated control (diseased maize; 0.25 lb ai/A foliar): 194% | Yield (diseased maize; 0.25 lb ai/A foliar at V8, harvest at maturity, 11% moisture): 146.2 a bu/A | reduced disease relative to the untreated control ([1]; 0.25 lb ai/A foliar): 70% | Disease Severity (% Leaf Coverage) ([1]; 0.25 lb ai/A foliar at V8, 28 days after application): 19.6 b % Leaf Coverage
